This series is described as follows: Evaluation of solubility of peptides in water (PBS or physiological saline). The format is physicochemical. Particulars: solvent PBS or physiological saline. The procedure: Water solubility was evaluated for peptides in which various kinds of hydrophilic amino acid were substituted for the 4th and 5th amino acids which were verified in (1) to be allowed to be mutated. The peptides listed in Table 2 were synthesized by GL Biochem (Shanghai). Among the peptides listed in Table 2, peptides SP1 to SP7 are peptides in which various kinds of hydrophilic amino acid were substituted for the 4th and 5th amino acids.
In Table 3, the circle symbol is assigned to a peptide which was dissolved in a solvent (PBS or physiological saline) at a concentration of 10 mg/ml or higher, and the cross symbol is assigned to a peptide which was not dissolved at a concentration of 1 mg/ml. […] In the subsequent experiments, the peptides in which the 4th and 5th amino acids were substituted by hydrophilic amino acids were used.

No end group written: not given here. Bounds are passed on as bounds.

On to PGLERF [SP5, PGLERF], for which the solubility (in general, how much of the substance goes into solution per volume) was at least 10000 µg/mL.
For PGLDHF [SP3, PGLDHF], the solubility was at least 10000 µg/mL.
Take PGLYYF [R1, PGLYYF]: the solubility was below 1000 µg/mL.
For the substance PGLDRF [SP2, PGLDRF], the solubility is at least 10000 µg/mL.
In turn, PGLEKF [SP4, PGLEKF] had a solubility of at least 10000 µg/mL.
To PGLEHF [SP6, PGLEHF] belongs at least 10000 µg/mL; to PGLSSF [SP7, PGLSSF], at least 10000 µg/mL.
Turning to PGLDKF [SP1, PGLDKF], the solubility is at least 10000 µg/mL.
